“And” between values parts separate entries of the source, which are not always exact repeats. Identical values can stand only once. Like-named read-outs stand apart in the source and are kept apart here.
Columns and labels:
[1] = tested on: pentobarbitone anaesthetized mice; details: bolus dose of 100 mg/kg i.v.
Source text: An initial toxicity study was undertaken in pentobarbitone anaesthetized mice.

[2] = tested on: pentobarbitone anaesthetized rats; details: 60 mg/kg i.v. over 20 minutes
Protocol: A study was carried out to assess tolerability in pentobarbitone anaesthetized rats.

Rat isolated heart = experiment: Rat isolated heart, 30 min regional ischaemia (coronary ligation), VF incidence (Example 2); details: for reduction of incidence of ischaemia-induced VF: 30 min regional ischaemia, test solutions 15 μM and 150 μM
Protocol: Model Choice: • Rat isolated heart, 30 min regional ischaemia (coronary ligation) • High baseline susceptibility to VF • Scope for detection of VF suppression by drugs

Langendorff preparation = details: cited from earlier work; for inhibition of VF: administered before or after ischaemia onset, Langendorff preparation
[3] = tested on: arrhythmias which occur early after occlusion of the left coronary artery
Protocol: Groups of female rats, each in the weight range of 200-300 g, were studied.
The protocol used followed that used in many previous studies seeking dose-related data for novel compounds and reference drugs.
Five minutes after the start of drug delivery the left main coronary artery was occluded (J Mol Cell Cardiol 19: 399-419 1987). This caused a region of ischaemia (verified by the occluded zone, OZ) which was maintained for the duration of the observation period (30 minutes) during which severe arrhythmias caused by the resultant cardiac ischaemia occur (J Mol Cell Cardiol 19: 399-419 1987).
This study was not randomized but was progressed from a low dose to a high dose.
Outcomes were evaluated versus a historical data base of 140 rats treated identically (0.8% saline infusion and coronary artery ligation).
Procedures: • From the ECG, the PR and QT and heart rate were determined. • From a femoral artery catheter, blood pressure (BP) was monitored. • Arrhythmic Score (AS) was determined by counting the number of ventricular premature beats (VPBs) and the occurrence of ventricular tachycardia (VT) and fibrillation (VF) (Cardiovasc Res 22: 656-665, 1988). • Occlusion Zone (OZ) was measured by weight (g) using a dye exclusion method (J Mol Cell Cardiol 19: 399-419 1987).

[4] = tested on: anaesthetised rats, myocardial infarction
[5] = tested on: anaesthetised rats, induced infarction, VF; details: for VF-free survival after 30 minutes: 2 mg/kg bolus and 0.5 mg/kg/min infusion, IV before induced infarction, control 0%
Source text: Method: • Randomized, blinded and fully powered trial • Groups of n=6 anaesthetised rats • Test solutions delivered by IV to rat tail vein before induced infarction

[6] = tested on: patients at high risk of VT or VF following myocardial infarction; details: cited from earlier work
[7] = LNO 3 mg/kg total dose i.v. over 20 min, group mean
[8] = LNO 10 mg/kg total dose i.v. over 20 min, group mean
[9] = LNO 10 mg/kg total dose i.v. over 20 min, individual rat
[10] = LNO 30 mg/kg total dose i.v. over 20 min, group mean
[11] = LNO 100 mg/kg total dose i.v. over 20 min, group mean

CC[N+]([O-])(CC)CC(=O)Nc1c(C)cccc1C [LNO, lidocaine N-oxide]
tolerability of the dose [1]: well tolerated | tolerability of the dose [2]: tolerated | effect on PR (Rat isolated heart): did not show any effect | effect on heart rate (Rat isolated heart): only a small effect | reduction of incidence of ischaemia-induced VF (Rat isolated heart; isolated rat heart): equally as effective as lidocaine | inhibition of VF (Langendorff preparation): equi-effective | dose-limiting bradycardia or PR interval elongation (Langendorff preparation): didn't induce | therapeutic window from the threshold effective dose ([3]; 3 mg/kg to 30 mg/kg i.v.): at least ten-fold | AS (arrhythmia score) [3, 7]: 4.5 | VF (ventricular fibrillation) [3, 7]: 0.25 number of episodes | VT (ventricular tachycardia) [3, 7]: 7.75 number of episodes | AS (arrhythmia score) ([3]; LNO 3 mg/kg total dose i.v. over 20 min, individual rat): 7 and 3 (2×) and 5 | AS (arrhythmia score) [3, 8]: 1.67 | VT (ventricular tachycardia) [3, 8]: 3 number of episodes | AS (arrhythmia score) [3, 9]: 1 (2×) and 3 | VF (ventricular fibrillation) [3, 9]: 0 number of episodes | AS (arrhythmia score) [3, 10]: 2 | VF (ventricular fibrillation) [3, 10]: 2 number of episodes | VT (ventricular tachycardia) [3, 10]: 22 number of episodes | AS (arrhythmia score) [3, 11]: 2.67 | VF (ventricular fibrillation) [3, 11]: 0.33 number of episodes | VT (ventricular tachycardia) [3, 11]: 3.67 number of episodes | Occl 10’ BP (blood pressure) ([3]; LNO 100 mg/kg total dose i.v. over 20 min, individual rat): Dead | arrhythmia score (AS) versus control ([3]; each tested dose: 3, 10, 30 and 100 mg/kg, 30 min regional ischaemia, vs historical controls): significantly reduced | off-target actions ([3]; highest dose of LNO, 100 mg/kg): one death due to convulsion | dose up to which no off-target effects are seen ([3]; rat, in vivo, iv): 30 mg/kg | lowest dose at which antiarrhythmic activity is seen (threshold effective dose) ([3]; regional ischaemia, i.v.): 3 mg/kg | survival rate ([4]; anaesthetised rats, LNO directly to the bloodstream prior to myocardial infarction): 100% | signs of excessive reduction in contractile function, decreased heart rate, complete heart block or asystole ([4]; rat, in vivo): no signs | VF-free survival after 30 minutes [5]: 67% | effectiveness against VF ([5]; anaesthetised rats, IV): effective | time post-infarction before a VF event ([5]; anaesthetised rats, IV): longer time | bradyarrhythmias ([5]; rat, in vivo, iv): did not

O=C(NCC1CCCCN1)c1cc(OCC(F)(F)F)ccc1OCC(F)(F)F (centres unmarked) [flecainide]
increase in the risk of mortality [6]: three-fold

CCN(CC)CC(=O)Nc1c(C)cccc1C [lidocaine, reference compound]
PR interval versus control (Rat isolated heart; 15 μM, during 30 min ischaemia): higher | reduction of incidence of ischaemia-induced VF (Rat isolated heart; isolated rat heart): equally effective | effect on PR (Rat isolated heart; isolated rat heart, conclusion): did show an impact | inhibition of VF (Langendorff preparation): equi-effective | VF-free survival after 30 minutes [5]: 67% | bradyarrhythmias ([5]; anaesthetised rats, IV): led to bradyarrhythmias | effectiveness against VF ([5]; anaesthetised rats, IV): effective

From patent publication US11266613B2 (priority 2017, dated 2022)
